Experimental data as given in patent US20020061888A1, “Combination therapy for the prophylaxis and treatment of hyperlipidemic conditions and disorders” (priority 2000, published 2002).

Columns and labels:
Male beagle dogs [1] = experiment: Fecal bile acid concentration in beagle dogs (enzymatic 3α-hydroxysteroid dehydrogenase assay of fecal extracts); type: in vivo; details: for FECAL BILE ACID CONCENTRATION: n = 6; for % change in fecal bile acid: Week 2, footnote: vs pretreatment, text b128: vs vehicle
Experimental: Male beagle dogs (9-10 kg) obtained from Marshall farms were fed a normal chow diet once a day for a two hour interval and given water ad libitum. Prior to initiating treatment, the dogs were weighed and blood samples were drawn from the cephalic vein of each dog following an overnight fast to evaluate pretreatment serum total cholesterol levels at the start of the study. […] All doses were administered in gelatin capsules per os to each dog between 9:00-9:30 a.m. prior to feeding. All animals were fed between 9:30-10:00 a.m. and were allowed two hours to eat, at which time any remaining food was removed. […] Three consecutive 24 hour fecal samples were collected for each group during the last 72 hours of each week and used to measure the concentration of fecal biles acids excreted during that time period.
Fecal samples were collected to determine the fecal bile acid (“FBA”) concentration for each animal. Three consecutive 24 hour fecal samples were collected between 8:00 a.m. and 9:00 a.m. each day, prior to dosing and feeding, during the last 72 hour period of each week. The separate daily collections from each dog were weighed, combined and homogenized with distilled water in a food processor to generate a homogeneous slurry. A 1.4 g sample of fecal homogenate was extracted with 2.6 mL of a solution containing tertiary butanol:distilled water in the ratio of 2:0.6 (final concentration of 50% tertiary butanol v/v distilled water) for 45 minutes in a 37° C. water bath and centrifuged for 13 minutes at 2000 x g. The concentration of bile acids (μmoles/gram homogenate) was determined using a 96-well enzymatic assay system described in van der Meer et al., “t-Butanol Extraction of Feces: A Rapid Procedure For Enzymic Determination Of Fecal Bile Acids”, Cholesterol, Metabolism in Health and Disease: Studies in the Netherlands, edited by Beynen, et al., Ponsen and Looyen, Wageningen, 1985; and Turley et al., “Re-evaluation of the 3 Alpha-Hydroxysteroid Dehydrogenase Assay For Total Bile Acids In Bile”, J. Lipid Research, 19:924-928, 1978.
A 20 μL aliquot of each fecal extract was added to each of two sets of triplicate wells in a 96-well assay plate. A standardized sodium taurocholate solution and a standardized fecal extract solution (previously made from pooled samples and characterized for its bile acid concentration) were also analyzed for assay quality control. A standard curve of five points containing 30-540 nmoles/well was generated by serial dilutions of an initial 20 μL aliquot of 90 mM sodium taurocholate. A 230 μL aliquot of a reaction mixture containing 1M hydrazine hydrate, 0.1 M pyrophosphate and 0.46 mg/ml NAD was added to each well. Subsequently, a 50 μL aliquot of either 3α-hydroxysteroid dehydrogenase (“HSD”) enzyme (0.8 units/mL) or assay buffer (0.1 M sodium pyrophosphate) was then added to one each of the two sets of triplicates. Following 60 minutes of incubation at room temperature, the optical density at 340 nm was measured and the mean of each set of triplicate samples was calculated. The difference in optical density with and without HSD enzyme was used to determine the bile acid concentration (mM) of each sample based on the sodium taurocholate standard curve. The bile acid concentration of the extract (μmoles/gram homogenate), the total weight of the fecal homogenate (grams) and the body weight of the dogs (kg) were used to calculate the corresponding fecal bile acid concentration in μtmoles/kg/day for each animal.
All reagents used for the assay were obtained from Sigma Chemical Co., St. Louis, Mo. (HSD enzyme—catalog # H-1506; NAD—catalog # N1636; sodium taurocholate—catalog # T-4009).

Male beagle dogs [2] = experiment: Serum triglyceride in beagle dogs; type: in vivo; details: n = 6
Experimental: Following this initial four week dose-ranging study, dogs from the two groups receiving 10 mg/kg/day pravastatin (a.m. and p.m. dosing groups) were randomized into two new treatment groups based on serum total cholesterol levels to initiate the combination treatment study. […] Dosing continued in this manner for an additional four weeks (Weeks 5-8) with blood and 48-hour fecal samples collected at the end of each week for serum lipid measurements and fecal bile acid determinations, respectively. […] At the end of this three-week period, pravastatin dosing and all empty capsule dosing were discontinued and blood samples were collected weekly for a final three weeks (weeks 12-14) to monitor the return of serum total cholesterol levels back to baseline.
Blood was collected from the cephalic vein of each dog into serum separator tubes. The blood was centrifuged at 900×g for 20 minutes at room temperature and the serum decanted. All analyses were performed on a Cobas Mira Clinical Analyzer System (Roche Diagnostic Systems, Branchburg, N.J.) using Roche Diagnostic reagents for enzymatic determinations of serum cholesterol and triglycerides. Commercial calibrator and quality control materials were analyzed with each run to verify assay accuracy and precision. A two-tailed, paired Students t-test was used to determine the statistical significance of changes in total serum cholesterol in treated animals compared to their pretreatment values. A two-sample, two-tailed unequal variance Students t-test was used to determine serum total cholesterol and triglyceride changes in the combination therapy group compared to the monotherapy groups. […]

[3] = compound A-5 monotherapy 4.0 mg/kg/day, dosed Weeks 5-8, Week 5, mean ± SEM
[4] = compound A-5 monotherapy 4.0 mg/kg/day, dosed Weeks 5-8, Week 6, mean ± SEM
[5] = compound A-5 monotherapy 4.0 mg/kg/day, dosed Weeks 5-8, Week 7, mean ± SEM
[6] = compound A-5 monotherapy 4.0 mg/kg/day, dosed Weeks 5-8, Week 8, mean ± SEM
[7] = compound A-5 monotherapy group, dosing terminated after Week 8, Week 9, mean ± SEM
[8] = compound A-5 monotherapy group, dosing terminated after Week 8, Week 10, mean ± SEM

CCCCC1(CC)CS(=O)(=O)c2ccc(N(C)C)cc2[C@@H](c2cccc(OCc3ccc(C[N+]45CCN(CC4)CC5)cc3)c2)[C@H]1O.[Cl-] (stereo partly shown) [Compound A-5]
return of fecal bile acid levels to their pretreatment levels after the last day of compound A-5 dosing (Male beagle dogs [1]; Example 3, 4.0 mg/kg/day compound A-5 for four weeks, alone or with 10 mg/kg/day pravastatin): within one week
FECAL BILE ACID CONCENTRATION (Male beagle dogs [1]; compound A-5 0.22 mg/kg/day per os, Week 1, mean ± SEM): 89 ± 9^3 μmol/day/kg
% change in fecal bile acid (Male beagle dogs [1]; compound A-5 0.22 mg/kg/day per os): (270) %
FECAL BILE ACID CONCENTRATION (Male beagle dogs [1]; compound A-5 0.22 mg/kg/day per os, Week 2, mean ± SEM): 100 ± 11^3 μmol/day/kg
FECAL BILE ACID CONCENTRATION (Male beagle dogs [1]; compound A-5 0.22 mg/kg/day per os, Week 3, mean ± SEM): 81 ± 7^3 μmol/day/kg
FECAL BILE ACID CONCENTRATION (Male beagle dogs [1]; compound A-5 0.66 mg/kg/day per os, Week 1, mean ± SEM): 134 ± 19^3 μmol/day/kg
% change in fecal bile acid (Male beagle dogs [1]; compound A-5 0.66 mg/kg/day per os): (396) %
FECAL BILE ACID CONCENTRATION (Male beagle dogs [1]; compound A-5 0.66 mg/kg/day per os, Week 2, mean ± SEM): 134 ± 16^3 μmol/day/kg
FECAL BILE ACID CONCENTRATION (Male beagle dogs [1]; compound A-5 0.66 mg/kg/day per os, Week 3, mean ± SEM): 126 ± 12^3 μmol/day/kg
FECAL BILE ACID CONCENTRATION (Male beagle dogs [1]; compound A-5 2.0 mg/kg/day per os, Week 1, mean ± SEM): 168 ± 13^3 μmol/day/kg
% change in fecal bile acid (Male beagle dogs [1]; compound A-5 2.0 mg/kg/day per os): (411) %
FECAL BILE ACID CONCENTRATION (Male beagle dogs [1]; compound A-5 2.0 mg/kg/day per os, Week 2, mean ± SEM): 138 ± 12^3 μmol/day/kg
FECAL BILE ACID CONCENTRATION (Male beagle dogs [1]; compound A-5 2.0 mg/kg/day per os, Week 3, mean ± SEM): 164 ± 11^3 μmol/day/kg
FECAL BILE ACID CONCENTRATION (Male beagle dogs [1]; compound A-5 6.0 mg/kg/day per os, Week 1, mean ± SEM): 190 ± 18^3 μmol/day/kg
% change in fecal bile acid (Male beagle dogs [1]; compound A-5 6.0 mg/kg/day per os): (674) %
FECAL BILE ACID CONCENTRATION (Male beagle dogs [1]; compound A-5 6.0 mg/kg/day per os, Week 2, mean ± SEM): 209 ± 27^3 μmol/day/kg
FECAL BILE ACID CONCENTRATION (Male beagle dogs [1]; compound A-5 6.0 mg/kg/day per os, Week 3, mean ± SEM): 179 ± 16^3 μmol/day/kg
% change in fecal bile acid concentration from Week 0 (Male beagle dogs [1]; compound A-5 monotherapy 4.0 mg/kg/day, dosed Weeks 5-8, Week 5): (+293)^4%
FECAL BILE ACID CONCENTRATION (Male beagle dogs [1]; [3]): 106 ± 13^3 μmol/kg/day
% change in fecal bile acid concentration from Week 0 (Male beagle dogs [1]; compound A-5 monotherapy 4.0 mg/kg/day, dosed Weeks 5-8, Week 6): (+374) %
FECAL BILE ACID CONCENTRATION (Male beagle dogs [1]; [4]): 128 ± 17^3 μmol/kg/day
% change in fecal bile acid concentration from Week 0 (Male beagle dogs [1]; compound A-5 monotherapy 4.0 mg/kg/day, dosed Weeks 5-8, Week 7): (+578) %
FECAL BILE ACID CONCENTRATION (Male beagle dogs [1]; [5]): 183 ± 39^3 μmol/kg/day
FECAL BILE ACID CONCENTRATION (Male beagle dogs [1]; [6]): 109 ± 23^3 μmol/kg/day
% change in fecal bile acid concentration from Week 0 (Male beagle dogs [1]; compound A-5 monotherapy group, dosing terminated after Week 8, Week 9): (+48) %
FECAL BILE ACID CONCENTRATION (Male beagle dogs [1]; [7]): 40 ± 6 µmol/kg/day
% change in fecal bile acid concentration from Week 0 (Male beagle dogs [1]; compound A-5 monotherapy group, dosing terminated after Week 8, Week 10): (+59) %
FECAL BILE ACID CONCENTRATION (Male beagle dogs [1]; [8]): 43 ± 4 µmol/kg/day
TOTAL SERUM TRIGLYCERIDE (Male beagle dogs [2]; [3]): 37 ± 3 mg/dL
TOTAL SERUM TRIGLYCERIDE (Male beagle dogs [2]; [4]): 32 ± 3 mg/dL
TOTAL SERUM TRIGLYCERIDE (Male beagle dogs [2]; [5]): 36 ± 3 mg/dL
TOTAL SERUM TRIGLYCERIDE (Male beagle dogs [2]; [6]): 34 ± 3 mg/dL
TOTAL SERUM TRIGLYCERIDE (Male beagle dogs [2]; [7]): 39 ± 3 mg/dL
TOTAL SERUM TRIGLYCERIDE (Male beagle dogs [2]; [8]): 42 ± 4 mg/dL
TOTAL SERUM TRIGLYCERIDE (Male beagle dogs [2]; compound A-5 monotherapy group, dosing terminated after Week 8, Week 11, mean ± SEM): 34 ± 3 mg/dL
TOTAL SERUM TRIGLYCERIDE (Male beagle dogs [2]; compound A-5 monotherapy group, dosing terminated after Week 8, Week 12, mean ± SEM): 51 ± 5 mg/dL
TOTAL SERUM TRIGLYCERIDE (Male beagle dogs [2]; compound A-5 monotherapy group, dosing terminated after Week 8, Week 13, mean ± SEM): 46 ± 3 mg/dL
